# According to US8691522B2, “Composition comprising extracellular membrane vesicles derived from indoor air, and use thereof” (priority 2009, dated 2014):
# Columns and labels:
# [1] = tested on: mouse macrophages (RAW 264.7); test: In vitro innate immunity: cytokine secretion (ELISA) of macrophages treated with indoor dust-derived vesicles; type: cell-based; settings: Dust-EV treated with PMB or heat, vs Dust-EV alone
# Method: Indoor dust was solubilized in PBS to separate extracellular vesicles and soluble components. The induction of innate immune responses by the vesicles and the water-soluble components was examined in vitro by applying them to mouse macrophages and measuring cytokine levels in the culture media.
# (§1) In detail, mouse macrophages (RAW264.7) were seeded at a density of 1×10^5 cells/well into 24 well plates and maintained for 24 hours. After the cells were washed with PBS, a fresh DMEM medium was added to the cells which were then incubated for 15 hours with dust-derived extracellular vesicles (Dust-EV, 0.1 μg/ml) and soluble components (Dust-soluble, 8 μg/ml), separately. The culture media were harvested and centrifuged at 4° C. and 800×g for 10 min. Cytokines in the supernatant were quantitatively analyzed by enzyme linked immunosorbent assay (ELISA).
# In addition, cytokine levels were measured after the cells were treated with 100 ng/ml and 1 μg/ml of the extracellular vesicles in the same manner as described above.
# It is well known that LPS, found in the outer membrane of Gram-negative bacteria, acts as an endotoxin to induce innate immune responses and that it has been detected in indoor dust.
# [2] = tested on: mouse macrophages (RAW 264.7); test: In vitro innate immune response: cytokine secretion (ELISA) of macrophages treated with HDM-EV; type: cell-based; settings: house dust mite-derived vesicles with Polymyxin B
# Method: as §1, with “grown” for “maintained”, “100 ng, 1 μg and 10 μg of house dust mite-derived” for “dust-derived”, “(HDM-EV).” for “(Dust-EV, 0.1 μg/ml) and soluble components (Dust-soluble, 8 μg/ml), separately.”
# C57BL/6 mice = test: In vivo acquired immune response to repetitive intranasal Dust-EV with or without PMB; parameters: species or system mouse
# Method: C57BL/6 mice (6 weeks old, female, four in each group) were intranasally administered twice a week for three weeks with 1 μg of indoor dust-derived extracellular vesicles in 30 μl of PBS. In addition, the vesicles were administered together with PMB so as to examine the presence and role of LPS therein. Twenty four hours after injection, clinical analysis was performed.
# Moreover, the immunological mechanism associated with the onset of lung inflammation was evaluated. Immune cells were separated from local lymph nodes and analyzed for the expression levels of IFN-γ and IL-17.
# [3] = vesicles in combination with PMB, ELISA
substance,measurement,setting,value
Polymyxin B [PMB],vesicle-induced secretion of IL-6,[1],significantly reduced
same,vesicle-induced secretion of TNF-α,[1],significantly decreased
same,vesicle-induced secretion of inflammatory mediators,[2],suppressed
same,count of inflammatory cells in BAL fluid,"C57BL/6 mice; Dust-EV administered together with PMB (Dust-EV+PMB), in contrast to vesicles alone",low
same,count of T cells secreting IFN-γ and IL-17 in local lymph nodes,C57BL/6 mice; Dust-EV in the presence of PMB,reduced the count of T cells including those secreting IFN-γ and IL-17 in local lymph nodes
same,level of IgG1 specific for indoor dust-derived vesicles in sera,C57BL/6 mice; [3],reduced to almost the same as those of the PBS group
same,level of IgG2a specific for indoor dust-derived vesicles in sera,C57BL/6 mice; [3],reduced to almost the same as those of the PBS group
